Assay [1] deals with NFκB promoter activity. Put plainly: NFκB luciferase reporter assay in Panc-1 cells. It is filed as cell-based. The method, then: (§1) FIGS. 3A, 3B, and 3C show the effect of cromolyn on S100P stimulated NFκB promoter activity in pancreatic cancer cells in vitro and in vivo. Panc-1 and BxPC-3 pancreatic cancer cell lines stably expressing an NFκB luciferase reporter were examined for the effects of S100P and cromolyn. […] Means and 95% confidence intervals are shown for three independent experiments performed in triplicate. *, P=0.022, †, P<0.001, and P<0.001 versus control; #, P=0.005 versus 100 nM S100P alone. […] Means and 95% confidence intervals are shown for three independent experiments performed in triplicate. *, P=0.003, †, P<0.001 versus control. […] After 1 week, tumor growth was assessed and NFκB activity was analyzed using an IVIS system (Xenogen Corp., Alameda, Calif.) after injecting mice with D-luciferin (150 mg per kg body weight) (0 time point). The mice were treated with cromolyn (5 mg per kg body weight by intraperitoneal injection), and NFκB luciferase activity was analyzed again at 24 and 48 hours. *, P=0.005 versus control. Means and 95% confidence intervals are shown for two independent experiments (n=4 mice per group). Two-tailed two-sample (unpaired for in vitro and paired for in vivo studies) Student's t-tests were used to determine P values.
To study pancreatic cancer cell NFκB activity, a lentivirus NFκB luciferase reporter gene construct was developed. The NFκB luciferase reporter gene was excised and isolated from the pNF-κB-Luc Vector (Clonetec, Mountain View, Calif.) and cloned into the lentiviral vector FG9 (Gift from Dr. Xiao-Feng Qin, Dept. of Immunology, M.D. Anderson Cancer Center replacing the CMV/LTR and UBiC promoters, to form Lenti-NFκB-Luc. Lentiviral NFκB vector were co-transfected with packaging constructs pRSVREV, pMDLg/pRRE, and the VSV-G expression plasmid pHCMVG, and lentivirus was produced in 293T cells by the calcium transfection method, as previously described in Qin, et al., Inhibiting HIV-1 infection in human T cells by lentiviral-mediated delivery of small interfering RNA against CCR5; Proc. Natl. Acad. Sci. U.S.A. 2003 Jan. 7; 100(1):183-8. […] Functional validation of NFκB reporter activity was conducted in vitro using TNF-α (20 ng/mL, Sigma, St. Louis, Mo.) as a positive control.
BxPC-3 and Panc-1 cells stably expressing a Lenti-NFkB-luc reporter construct were treated with S100P, cromolyn, or the combination for 5 hours. D-luciferin (150 μg/mL) was added to the cells, and luciferase activity was measured using an IVIS bioluminescence system (Xenogen Co. Alameda, Calif.). Each experiment was conducted three times in triplicate.
(In general: Reporter assays use an easily measured gene product as a stand-in for the process of interest.)

Assay [2] concerns NFκB promoter activity. Put plainly: NFκB luciferase activity in vivo, orthotopic BxPC-3 tumors. Also noted: species or system mice. The method, then:
as §1, with “values. To measure NFκB promoter activity in vivo, BxPC-3 cells (50,000/50 μL) stably expressing a Lenti-NFkB-luc reporter were transplanted orthotopically into the pancreas of 4-week-old male CB17 scid mice (n=4 mice per experiment). After 1 week mice were injected with D-luciferin (150 mg per kg body weight, i.p.), and basal NFκB activity was determined using the IVIS system. Subsequently, mice were injected with cromolyn (5 mg per kg body weight, i.p.), and NFκB luciferase activity was re-analyzed after 24 and 48 hours. These experiments were performed three times. To determine whether cromolyn treatment could also reduce NFκB activity in vivo, NFκB activity of BxPC-3 cells stably expressing an NFκB luciferase reporter construct that had been transplanted orthotopically into the pancreas of […] (n=4) was examined. After 1 week, NFκB luciferase activity was determined before (0 time point) and at 24 and 48 hours after a single dose of cromolyn (5 mg per kg body weight by intraperitoneal [i.p.] injection). Cromolyn administration reduced basal NFκB activity by at least 80% 24 hours after injection (0 h, mean=9.9×10^6 versus 24 h, mean=1.3×10^6 photons/sec, difference=8.6×10^6 photons/sec, 95% CI=3.1×10^6 to 1.4×10^7 photons/sec; P=0.005, FIG. 3C).” for “values.”

[3] abbreviates: S100P 100 nM + cromolyn 100 μM, 5 hours.

Structures are written as SMILES.

Turning to `O=C(O)c1cc(=O)c2c(OCC(O)COc3cccc4oc(C(=O)O)cc(=O)c34)cccc2o1` [cromolyn, disodium 1,3-bis[(2′-carboxylatochromon-5′-yl)oxy]-2-hydroxypropane], in assay [1] (setting [3]), the “NFκB promoter activity, difference versus 100 nM S100P alone” value came out at 7100 photons/sec and the “NFκB promoter activity, mean” value is reported as 7360 photons/sec. Moreover, the “basal NFκB activity” value in assay [1] (cromolyn alone) was “no effect”. The “NFκB luciferase activity, difference 0 h versus 24 h” value in assay [2] (cromolyn 5 mg per kg i.p., 24 h) was 8.6×10^6 photons/sec. The “NFκB luciferase activity, mean” value in assay [2] (cromolyn 5 mg per kg i.p., 24 h, 0 h mean 9.9×10^6) is 1.3×10^6 photons/sec. Further, the NFκB activity result in assay [2] (cromolyn 5 mg per kg i.p., 48 hours after injection) is “returned to control levels”. For the same compound, the “reduction of basal NFκB activity” value in assay [2] (single dose cromolyn 5 mg per kg i.p., 24 hours after injection) is “at least 80%”.
